Results published in paper PMC3871636 (PLoS ONE, 2013).

Columns and labels:
[1] = molecular target: CYP3A4 (C377/C468 mutant) (Homo sapiens, UniProt P08684, form not given/S18F); assay: Ligand-induced spin shift, absorbance titration; format: binding; details: human, purified CYP3A4(C377/C468) mutant protein, pH 7.4; read-out: K D or S 50
Procedure: (§1) All absorbance and fluorescence assays (including the time-resolved fluorescence measurements) were performed at a protein concentration ≤1 µM at 25°C with continuous stirring. Absorbance spectra were recorded with an S2000 rapid scanning CCD spectrometer (Ocean Optics). Ligand binding assays were done in 100 mM Na-Hepes buffer, pH 7.4, containing 0.5 mM EDTA.
(§2) Absorbance spectra obtained in titration experiments were analyzed with a principal component analysis (PCA) procedure complemented with least-square approximation of the principal vectors with a combination of the prototypical spectra of the CYP3A4 low-spin, high-spin and Type II-substrate-bound ferric CYP3A4 P450 states as described, [31].
(§3) When fitting the results of titration experiments, where the changes in the monitored signal A S (fraction of the enzyme in the high-spin state, intensity or the lifetime of the donor phosphorescence at a given substrate concentration) were assumed to be proportional to [ES], this equation was complemented with the offset A 0 and the scaling factor A max to yield the following relationship: [drawing 5] (Eq.5)

CYP3A4 (C64/C468 mutant) = CYP3A4 (C64/C468 mutant) (Homo sapiens, UniProt P08684, form not given/S18F); assay: Ligand-induced spin shift, absorbance titration; format: binding; details: human, purified CYP3A4(C64/C468) mutant protein, pH 7.4; read-out: K D or S 50
Chain of CYP3A4 (C64/C468 mutant) (P08684 13-503 S18F, form open): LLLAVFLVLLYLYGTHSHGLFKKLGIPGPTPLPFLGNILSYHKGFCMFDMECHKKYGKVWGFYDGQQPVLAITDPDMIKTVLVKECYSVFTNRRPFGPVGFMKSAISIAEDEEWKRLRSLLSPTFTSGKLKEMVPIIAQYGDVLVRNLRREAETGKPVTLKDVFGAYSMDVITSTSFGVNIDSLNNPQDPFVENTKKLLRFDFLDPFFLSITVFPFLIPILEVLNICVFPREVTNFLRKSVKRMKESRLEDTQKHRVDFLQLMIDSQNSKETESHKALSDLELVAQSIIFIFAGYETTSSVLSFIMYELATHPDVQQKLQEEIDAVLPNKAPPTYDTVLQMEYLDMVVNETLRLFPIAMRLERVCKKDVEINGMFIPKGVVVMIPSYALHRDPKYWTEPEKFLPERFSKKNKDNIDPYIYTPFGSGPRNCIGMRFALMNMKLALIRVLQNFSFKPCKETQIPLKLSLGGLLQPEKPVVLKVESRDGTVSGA
Procedure: as §1, §2, §3

[2] = molecular target: T1, double-labeled CYP3A4 (C64/C468)-ER/DY (Homo sapiens, UniProt P08684, S18F, form not given); assay: Time-resolved LRET (phosphorescence lifetime measurements)
T1 sequence (P08684 13-503 S18F, form open): as above
From the text: (§4) The excitation wavelength was set to 540 nm.

[3] = molecular target: T2, double-labeled CYP3A4 (C64/C468)-DY/ER (Homo sapiens, UniProt P08684, S18F, form not given); assay: as above
T2 sequence (P08684 13-503 S18F, form open): as above
From the text: as §4

[4] = molecular target: T3, double-labeled CYP3A4 C377/C468-DY/ER (Homo sapiens, UniProt P08684, S18F, form not given); assay: as above
T3 sequence (P08684 13-503 S18F, form open): as above
From the text: as §4

[5] = molecular target: double-labeled CYP3A4 C64/C121-DY/ER (Homo sapiens, UniProt P08684, A121C/C239S/C377S/C468A/C98S/S18F); assay: Steady-state LRET titration (delayed emission); details: Table S2; protein C64/C121-ER/DY; same ligand concentrations
Chain of double-labeled CYP3A4 C64/C121-DY/ER (P08684 with tags, fused parts or gaps S18F/C98S/A121C/C239S/C377S/C468A limits assumed): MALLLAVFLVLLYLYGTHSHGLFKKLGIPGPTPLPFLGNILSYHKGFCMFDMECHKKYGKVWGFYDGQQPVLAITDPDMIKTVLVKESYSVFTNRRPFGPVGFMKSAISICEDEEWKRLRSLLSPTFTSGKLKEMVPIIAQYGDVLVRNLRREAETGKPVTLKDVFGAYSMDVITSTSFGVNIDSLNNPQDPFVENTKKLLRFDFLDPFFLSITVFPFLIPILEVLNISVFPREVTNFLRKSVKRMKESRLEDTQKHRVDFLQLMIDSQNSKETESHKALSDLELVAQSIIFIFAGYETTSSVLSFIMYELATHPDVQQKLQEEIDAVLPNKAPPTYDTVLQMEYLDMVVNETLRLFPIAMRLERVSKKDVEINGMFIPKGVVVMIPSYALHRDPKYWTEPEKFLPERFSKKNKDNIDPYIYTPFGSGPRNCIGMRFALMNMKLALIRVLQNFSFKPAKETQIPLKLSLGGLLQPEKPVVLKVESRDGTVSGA
Procedure: as §1
(§5) Fluorescence-based ligand binding assays were done under anaerobic conditions. Anaerobiosis was achieved using an oxygen-scavenging system consisting of protecatechuate-3,4-dioxygenase (0.5 units/ml) and 5 mM protocatechuic acid. The steady state and time-resolved phosphorescence measurements were performed with the use of a Cary Eclipse fluorescence spectrophotometer (Varian/Agilent Technologies). The excitation wavelength was set to 540 nm. Spectra were taken from 650 to 860 nm with 100 µs delay.
(§6) Quantitative interpretation of LRET results was also based on the use of PCA applied to a series of emission spectra normalized on integral intensity. […] Intensity of the donor and acceptor fluorescence obtained in this way were used in determination of the efficiency of steady-state LRET using the equation [drawing 1] (Eq.1) where I ad is emission intensity of the acceptor, I da is the residual donor emission in the presence of acceptor (I da), Φ a and Φ d are the quantum yield of the fluorescence of acceptor and the quantum yield of the phosphorescence of donor, respectively.
(§7) Distances were calculated using the equation: [drawing 3] (Eq.3) where R 0 is the Förster distance, and R is the distance between the donor and acceptor. R 0 was calculated with the use of PhotoChemCad software. In these calculations, we used the values of the orientation factor (κ^2) and the refractive index (n) of 0.667 and 1.4, respectively.
as §3

[6] = molecular target: T1, double-labeled CYP3A4 (C64/C468)-ER/DY; assay: Steady-state LRET titration (delayed emission); format: binding
Procedure: as §1, §5, §6, §7, §3

[7] = molecular target: CYP3A4 (double-labeled (C64/C468)-DY/ER) (Homo sapiens, UniProt P08684, form not given/S18F); assay: Steady-state LRET titration (delayed emission); format: binding; details: human, purified double-labeled CYP3A4 (C64/C468)-DY/ER protein, pH 7.4; (C64/C468)-DY/ER; LRET titration; read-out: K d, steady-state fluorescence
Chain of CYP3A4 (double-labeled (C64/C468)-DY/ER) (P08684 13-503 S18F, form open): as the sequence (P08684 13-503 S18F, form open) above
Procedure: as §1, §5, §6, §7, §3

[8] = molecular target: T2, double-labeled CYP3A4 (C64/C468)-DY/ER; assay: Steady-state LRET titration (delayed emission); format: binding
Procedure: as §1, §5, §6, §7, §3

[9] = molecular target: T3, double-labeled CYP3A4 C377/C468-DY/ER; assay: Steady-state LRET titration (delayed emission); format: binding; details: Table S2, protein C377/C468-ER/DY
Procedure: as §1, §5, §6, §7, §3

[10] = (C64/C468)-ER/DY, nearly-saturating ligand: ANF 100 µM, bromocriptine 2.5 µM, cholesterol 50 µM, testosterone 100 µM
[11] = Table S1, (C64/C468)-ER/DY, same ligand concentrations
[12] = Table S2, C64/C468-ER/DY, 1-PB 40 µM, ANF 100 µM, BCT 2.5 µM, cholesterol 100 µM, testosterone 100 µM
[13] = Table S2, C64/C468-ER/DY, same ligand concentrations
[14] = (C64/C468)-DY/ER, nearly-saturating ligand: ANF 100 µM, bromocriptine 2.5 µM, cholesterol 50 µM, testosterone 100 µM
[15] = Table S1, (C64/C468)-DY/ER, same ligand concentrations
[16] = Table S2, C64/C468-DY/ER, 1-PB 40 µM, ANF 100 µM, BCT 2.5 µM, cholesterol 100 µM, testosterone 100 µM
[17] = Table S2, C64/C468-DY/ER, same ligand concentrations
[18] = Table S1, protein (C377/C468)-ER/DY, same ligand concentrations
[19] = Table S2, protein C377/C468-ER/DY, same ligand concentrations

Chain of CYP3A4 (C377/C468 mutant) (P08684 13-503 S18F, form open): as above

O=c1cc(-c2ccccc2)oc2c1ccc1ccccc12 [ANF, α-naphthoflavone]
Kd [1]: 6.2 ± 1.2 µM
Kd (CYP3A4 (C64/C468 mutant)): 5.1 ± 1.5 µM
ΔELT (change in LRET efficiency), lifetime measurements [2, 10]: −14.5±1%
ΔR (change in interprobe distance), lifetime measurements [2, 10]: 4.1±0.2 Å
τ1 (phosphorescence decay time with ligand) ([2]; Table S1, (C64/C468)-ER/DY, 1-PB 40 µM, ANF 100 µM, BCT 2.5 µM, cholesterol 100 µM, testosterone 100 µM, bi-exponential fit): 53 ± 2 µs
F1 (fraction of first exponential) [2, 11]: 34 ± 1%
τ2 (phosphorescence decay time with ligand) [2, 11]: 216 ± 3 µs
τav (average phosphorescence lifetime with ligand) [2, 11]: 168 ± 1 µs
E (LRET efficiency with ligand), lifetime measurements [2, 12]: 28 ± 1%
R (interprobe distance with ligand), lifetime measurements [2, 13]: 40.4 ± 0.1 Å
ΔR, lifetime measurements [2, 13]: 4.1 ± 0.1 Å
ΔELT (change in LRET efficiency), lifetime measurements [3, 14]: −6.8±3%
ΔR (change in interprobe distance), lifetime measurements [3, 14]: 1.8±0.7 Å
τ1 (phosphorescence decay time with ligand) ([3]; Table S1, (C64/C468)-DY/ER, 1-PB 40 µM, ANF 100 µM, BCT 2.5 µM, cholesterol 100 µM, testosterone 100 µM, bi-exponential fit): 54 ± 1 µs
F1 (fraction of first exponential) [3, 15]: 45 ± 5%
τ2 (phosphorescence decay time with ligand) [3, 15]: 231 ± 15 µs
τav (average phosphorescence lifetime with ligand) [3, 15]: 154 ± 4 µs
E (LRET efficiency with ligand), lifetime measurements [3, 16]: 34 ± 2%
R (interprobe distance with ligand), lifetime measurements [3, 17]: 38.6 ± 0.5 Å
ΔR, lifetime measurements [3, 17]: 1.8 ± 0.5 Å
τ1 (phosphorescence decay time with ligand) ([4]; Table S1, protein (C377/C468)-ER/DY, 1-PB 40 µM, ANF 100 µM, BCT 2.5 µM, cholesterol 100 µM, testosterone 100 µM, bi-exponential fit): 42 ± 10 µs
F1 (fraction of first exponential) [4, 18]: 28 ± 5%
τ2 (phosphorescence decay time with ligand) [4, 18]: 188 ± 18 µs
τav (average phosphorescence lifetime with ligand) [4, 18]: 147 ± 8 µs
E (LRET efficiency with ligand), lifetime measurements ([4]; Table S2, protein C377/C468-ER/DY, 1-PB 40 µM, ANF 100 µM, BCT 2.5 µM, cholesterol 100 µM, testosterone 100 µM): 19 ± 4%
R (interprobe distance with ligand), lifetime measurements [4, 19]: 43.9 ± 2.3 Å
ΔR, lifetime measurements [4, 19]: 7.1 ± 2.3 Å
R (interprobe distance with ligand), steady-state measurements [5]: 43.4 ± 0.1 Å
ΔR, steady-state measurements [5]: 1.1 ± 0.1 Å
ΔR (change in interprobe distance), steady-state fluorescence ([6]; (C64/C468)-ER/DY): 2.1±0.9 Å
ΔE (change in LRET efficiency), steady-state fluorescence ([6]; (C64/C468)-ER/DY, from maximal relative change in donor intensity): −8±4%
E (LRET efficiency with ligand), steady-state measurements [6, 12]: 23 ± 2%
R (interprobe distance with ligand), steady-state measurements [6, 13]: 41.2 ± 0.9 Å
ΔR, steady-state measurements [6, 13]: 2.1 ± 0.9 Å
Kd [7]: 9.1 ± 2.9 µM
ΔR (change in interprobe distance), steady-state fluorescence ([8]; (C64/C468)-DY/ER): 3.9±1.7 Å
ΔE (change in LRET efficiency), steady-state fluorescence ([8]; (C64/C468)-DY/ER, from maximal relative change in donor intensity): −18±1%
E (LRET efficiency with ligand), steady-state measurements [8, 16]: 29 ± 1%
R (interprobe distance with ligand), steady-state measurements [8, 17]: 38.8 ± 1 Å
ΔR, steady-state measurements [8, 17]: 3.9 ± 1.7 Å
E (LRET efficiency with ligand), steady-state measurements ([9]; 1-PB 40 µM, ANF 100 µM, BCT 2.5 µM, cholesterol 100 µM, testosterone 100 µM): 14 ± 0%
R (interprobe distance with ligand), steady-state measurements ([9]; same ligand concentrations): 45.2 ± 0.1 Å
ΔR, steady-state measurements ([9]; same ligand concentrations): 0.5 ± 0.1 Å
